Test results as given in US9669034B2, “4-aryl-N-phenyl-1,3,5-triazin-2-amines containing a sulfoximine group” (BAYER INTELLECTUAL PROPERTY GMBH, priority 2011, dated 2017).
Read-outs that look alike come from different tables or passages of the source.

Key:
[1] = target: CDK9/CycT1 (Homo sapiens (Human), UniProt P50750); test: CDK9/CycT1 kinase assay (TR-FRET); assay type: biochemical; details: Method 1
Summary of the method: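 TR-FRET read-out of kinase inhibition, with a biotin-Ttds-tagged peptide as substrate. Enzyme: human CDK9 and CycT1, full-length with His tags, produced in insect cells and purified on Ni-NTA.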

[2] = target: CDK2/CycE (Homo sapiens (Human), UniProt P24941); test: CDK2/CycE kinase assay (TR-FRET); assay type: biochemical; details: Method 2
Summary of the method: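 TR-FRET measurement of inhibition of phosphorylation of a biotinylated peptide substrate. Enzyme complex consisted of human CDK2 and CycE, each as a GST fusion made in Sf9 cells and purified over glutathione-Sepharose.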

[3] = test system: HeLa human cervical tumour cells; test: Proliferation assay (crystal violet), HeLa; assay type: cell-based; details: Method 3, read-out: Inhibition of HeLa cell proliferation, IC50
Description: (§1) Cultivated tumour cells (NCI-H460, human non-small cell lung carcinoma cells, ATCC HTB-177; DU145, hormone-independent human prostate carcinoma cells, ATCC HTB-81; HeLa-MaTu, human cervical carcinoma cells, EPO-GmbH, Berlin; HeLa-MaTu-ADR, multidrug-resistant human cervical carcinoma cells, EPO-GmbH, Berlin; HeLa human cervical tumour cells, ATCC CCL-2; Caco-2 human colorectal carcinoma, ATCC HTB-37; B16F10 mouse melanoma cells, ATCC CRL-6475) were plated at a density of 5000 cells/well (DU145, HeLa-MaTu-ADR), 3000 cells/well (NCI-H460, HeLa-MaTu, HeLa), 1500 cells/well (Caco-2), or 1000 cells/well (B16 F10) in a 96-well multititer plate in 200 μL of their respective growth medium supplemented 10% fetal calf serum. After 24 hours, the cells of one plate (zero-point plate) were stained with crystal violet (see below), while the medium of the other plates was replaced by fresh culture medium (200 μL), to which the test substances were added in various concentrations (0 M, as well as in the range of […]; the final concentration of the solvent dimethylsulfoxide was 0.5%). The cells were incubated for 4 days in the presence of test substances. Cell proliferation was determined by staining the cells with crystal violet: the cells were fixed by adding 20 μL/measuring point of an 11% glutaric aldehyde solution for 15 minutes at room temperature. After three washing cycles of the fixed cells with water, the plates were dried at room temperature. The cells were stained by adding 100 μL/measuring point of a 0.1% crystal violet solution (pH 3.0). After three washing cycles of the stained cells with water, the plates were dried at room temperature. The dye was dissolved by adding 100 μL/measuring point of a 10% acetic acid solution. The absorbance was determined by photometry at a wavelength of 595 nm. The change of cell number, in percent, was calculated by normalization of the measured values to the absorbance values of the zero-point plate (=0%) and the absorbance of the untreated (0 M) cells (=100%). The IC50 values were determined by means of a 4 parameter fit.

[4] = test system: HeLa-MaTu-ADR, multidrug-resistant human cervical carcinoma cells; test: Proliferation assay (crystal violet), HeLa-MaTu-ADR; assay type: cell-based; details: Method 3, read-out: Inhibition of HeLa/MaTu/ADR cell proliferation, IC50
Description: as §1

[5] = test system: NCI-H460, human non-small cell lung carcinoma cells; test: Proliferation assay (crystal violet), NCI-H460; assay type: cell-based; details: Method 3, read-out: Inhibition of NCI-H460 cell proliferation, IC50
Description: as §1

[6] = test system: DU145, hormone-independent human prostate carcinoma cells; test: Proliferation assay (crystal violet), DU145; assay type: cell-based; details: Method 3, read-out: Inhibition of DU145 cell proliferation, IC50
Description: as §1

[7] = test system: Caco-2 human colorectal carcinoma; test: Proliferation assay (crystal violet), Caco-2; assay type: cell-based; details: Method 3, read-out: Inhibition of Caco-2 cell proliferation, IC50
Description: as §1

[8] = test system: B16F10 mouse melanoma cells; test: Proliferation assay (crystal violet), B16F10; assay type: cell-based; details: Method 3, read-out: Inhibition of B16F10 cell proliferation, IC50
Description: as §1

[9] = Homo sapiens, NCI-H460, NCI-H460 cells
[10] = Homo sapiens, DU-145, DU145 cells
[11] = Homo sapiens, Caco-2, Caco-2 cells
[12] = Mus musculus, B16-F10, B16F10 cells

Chain of CDK9/CycT1 (P50750 whole entry): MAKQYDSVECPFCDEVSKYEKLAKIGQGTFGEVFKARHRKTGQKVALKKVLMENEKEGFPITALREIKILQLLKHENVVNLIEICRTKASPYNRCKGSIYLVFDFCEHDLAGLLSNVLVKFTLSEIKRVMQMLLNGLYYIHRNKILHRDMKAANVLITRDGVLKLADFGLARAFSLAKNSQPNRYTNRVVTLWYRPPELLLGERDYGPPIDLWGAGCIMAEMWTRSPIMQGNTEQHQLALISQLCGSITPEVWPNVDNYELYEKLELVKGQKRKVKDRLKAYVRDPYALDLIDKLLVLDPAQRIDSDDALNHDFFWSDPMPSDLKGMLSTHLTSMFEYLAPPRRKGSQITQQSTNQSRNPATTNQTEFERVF
Chain of CDK9/CycT1 (O60563 whole entry partner): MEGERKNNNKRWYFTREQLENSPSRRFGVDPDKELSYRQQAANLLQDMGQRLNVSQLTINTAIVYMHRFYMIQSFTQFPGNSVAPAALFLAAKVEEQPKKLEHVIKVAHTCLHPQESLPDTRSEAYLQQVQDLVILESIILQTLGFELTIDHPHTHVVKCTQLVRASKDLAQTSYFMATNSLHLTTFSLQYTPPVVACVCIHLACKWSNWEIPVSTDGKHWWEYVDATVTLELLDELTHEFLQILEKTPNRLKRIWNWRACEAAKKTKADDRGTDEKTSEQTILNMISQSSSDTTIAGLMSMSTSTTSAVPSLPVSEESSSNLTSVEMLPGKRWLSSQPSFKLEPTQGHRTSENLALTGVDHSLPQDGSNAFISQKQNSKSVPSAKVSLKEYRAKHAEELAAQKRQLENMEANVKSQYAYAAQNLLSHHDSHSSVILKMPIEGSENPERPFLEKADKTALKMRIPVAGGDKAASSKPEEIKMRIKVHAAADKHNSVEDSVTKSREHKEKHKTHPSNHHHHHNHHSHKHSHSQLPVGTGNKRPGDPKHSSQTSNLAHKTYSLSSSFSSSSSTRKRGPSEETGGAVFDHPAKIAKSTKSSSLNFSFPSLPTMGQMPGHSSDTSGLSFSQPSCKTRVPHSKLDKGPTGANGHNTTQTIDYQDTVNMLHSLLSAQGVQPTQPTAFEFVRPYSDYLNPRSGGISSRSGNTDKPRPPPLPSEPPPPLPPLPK

| IC50 [1] [nM] | IC50 [2] [nM] | IC50 [3] [nM] | IC50 [4] [nM] | IC50 ([5]; NCI-H460 cells) [nM] | IC50 ([6]; DU145 cells) [nM] | IC50 ([7]; Caco-2 cells) [nM] | IC50 ([8]; B16F10 cells) [nM] | IC50 ([3]; Homo sapiens, HeLa) [nM] | IC50 ([4]; Homo sapiens, HeLa) [nM] | IC50 [5, 9] [nM] | IC50 [6, 10] [nM] | IC50 [7, 11] [nM] | IC50 [8, 12] [nM] | SMILES |
| --- | --- | --- | --- | --- | --- | --- | --- | --- | --- | --- | --- | --- | --- | --- |
| 4 | 450 | 260 | 210 | 220 | 170 | 310 | 240 |  |  |  |  |  |  | CC#CCOc1cc(F)ccc1-c1ncnc(Nc2cccc(CS(C)(=N)=O)c2)n1 (single isomer, unassigned) [Example 75, 4-[2-(But-2-yn-1-yloxy)-4-fluorophenyl]-N-{3-[(S-methylsulfonimidoyl)methyl]phenyl}-1,3,5-triazin-2-amine] |
| 2 | 250 |  |  |  |  |  |  | 120 | 180 | 150 | 120 | 230 | 200 | C=C(C)COc1cc(F)ccc1-c1ncnc(Nc2cccc(CS(C)(=N)=O)c2)n1 (racemic) [Example 99, (rac)-4-{4-Fluoro-2-[(2-methylprop-2-en-1-yl)oxy]phenyl}-N-{3-[(S-methylsulfonimidoyl)methyl]phenyl}-1,3,5-triazin-2-amine] |
| 4 | 560 |  |  |  |  |  |  | 350 | 270 | 340 | 340 | 430 | 340 | CS(=N)(=O)Cc1cccc(Nc2ncnc(-c3ccc(F)cc3OCc3ccc(F)cc3)n2)c1 (single isomer, unassigned) [Example 56.a, 4-{4-Fluoro-2-[(4-fluorobenzyl)oxy]phenyl}-N-{3-[(S-methylsulfonimidoyl)methyl]phenyl}-1,3,5-triazin-2-amine] |
| 9 | 1900 |  |  |  |  |  |  | 590 | 1100 | 530 | 800 | 1100 | 800 | CS(=N)(=O)Cc1cccc(Nc2ncnc(-c3ccccc3OCc3ccc(F)cc3)n2)c1 (racemic) [Example 43, (rac)-4-{2-[(4-Fluorobenzyl)oxy]phenyl}-N-{3-[(S-methylsulfonimidoyl)methyl]phenyl}-1,3,5-triazin-2-amine] |
| 5 | 560 | 540 | 540 | 470 | 400 | 540 | 390 |  |  |  |  |  |  | CS(=N)(=O)Cc1cccc(Nc2ncnc(-c3ccc(F)cc3OCc3ccc(F)cc3)n2)c1 (single isomer, unassigned) [Example 56.b, 4-{4-Fluoro-2-[(4-fluorobenzyl)oxy]phenyl}-N-{3-[(S-methylsulfonimidoyl)methyl]phenyl}-1,3,5-triazin-2-amine] |
| 15 | 250 |  |  |  |  |  |  | 400 | 280 | 360 | 290 | 350 | 320 | COc1cc(F)ccc1-c1ncnc(Nc2cc(Cl)cc(CS(C)(=N)=O)c2)n1 (racemic) [Example 64, (rac)-N-{3-Chloro-5-[(S-methylsulfonimidoyl)methyl]phenyl}-4-(4-fluoro-2-methoxyphenyl)-1,3,5-triazin-2-amine] |
| 7 | 800 |  |  |  |  |  |  | 340 | 140 | 150 | 95 | 160 | 140 | C/C=C\COc1cc(F)ccc1-c1ncnc(Nc2cccc(CS(C)(=N)=O)c2)n1 (racemic) [Example 102, (rac)-4-{2-[(2Z)-But-2-en-1-yloxy]-4-fluorophenyl}-N-{3-[(S-methylsulfonimidoyl)methyl]phenyl}-1,3,5-triazin-2-amine] |
| 3 | 220 | 120 | 340 | 180 | 180 | 180 | 210 |  |  |  |  |  |  | CS(=N)(=O)Cc1cccc(Nc2ncnc(-c3ccc(F)cc3OCc3ccnc(F)c3)n2)c1 (single isomer, unassigned) [Example 84, 4-{4-Fluoro-2-[(2-fluoropyridin-4-yl)methoxy]phenyl}-N-{3-[(S-methylsulfonimidoyl)methyl]phenyl}-1,3,5-triazin-2-amine] |
| 4 | 730 |  |  |  |  |  |  | 330 | 390 | 320 | 300 | 350 | 320 | C=C(CO)COc1cc(F)ccc1-c1ncnc(Nc2cccc(CS(C)(=N)=O)c2)n1 (racemic) [Example 112, (rac)-2-({5-Fluoro-2-[4-({3-[(S-methylsulfonimidoyl)methyl]phenyl}amino)-1,3,5-triazin-2-yl]phenoxy}methyl)prop-2-en-1-ol] |
| 3 | 680 |  |  |  |  |  |  | 560 | 450 | 570 | 610 | 800 | 590 | CS(=N)(=O)Cc1cccc(Nc2ncnc(-c3ccc(F)cc3OCc3ccc(Cl)cc3)n2)c1 (racemic) [Example 87, (rac)-4-{2-[(4-Chlorobenzyl)oxy]-4-fluorophenyl}-N-{3-[(S-methylsulfonimidoyl)methyl]phenyl}-1,3,5-triazin-2-amine] |
| 9 | 580 |  |  |  |  |  |  | 650 | 260 | 390 | 370 | 760 | 500 | C#CCOc1cc(F)ccc1-c1ncnc(Nc2cccc(CS(C)(=N)=O)c2)n1 (single isomer, unassigned) [Example 78, 4-[4-Fluoro-2-(prop-2-yn-1-yloxy)phenyl]-N-{3-[(S-methylsulfonimidoyl)methyl]phenyl}-1,3,5-triazin-2-amine] |
| 3 | 250 |  |  |  |  |  |  | 100 | 170 | 270 | 110 | 220 | 130 | COc1cc(F)ccc1-c1ncnc(Nc2cc(C)cc(CS(C)(=O)=NC#N)c2)n1 (racemic) [Example 111, (rac)-[(3-{[4-(4-Fluoro-2-methoxyphenyl)-1,3,5-triazin-2-yl]amino}-5-methylbenzyl)(methyl)oxido-λ^6-sulfanylidene]cyanamide] |
| 11 | 1800 |  |  |  |  |  |  | 490 | 520 | 760 | 680 | 710 | 940 | COc1cc(F)ccc1-c1ncnc(Nc2cccc(CS(C)(=O)=NC(C)=O)c2)n1 (racemic) [Example 24, (rac)-N-[(3-{[4-(4-fluoro-2-methoxyphenyl)-1,3,5-triazin-2-yl]amino}benzyl)(methyl)oxido-λ^6-sulfanylidene]acetamide] |
| 4 | 250 |  |  |  |  |  |  | 470 | 360 | 170 | 380 | 430 | 390 | CS(=N)(=O)Cc1cccc(Nc2ncnc(-c3ccc(F)cc3OCc3cccc(Cl)c3)n2)c1 (racemic) [Example 92, (rac)-4-{2-[(3-Chlorobenzyl)oxy]-4-fluorophenyl}-N-{3-[(S-methylsulfonimidoyl)methyl]phenyl}-1,3,5-triazin-2-amine] |
